Reference: US11504382B2, “Tricyclic inhibitors of Hepatitis B virus” (Antios Therapeutics, Inc., priority 2018, dated 2022)

Key:
HBV [1] = details: Phase 1b proof-of-concept clinical studies; cited from earlier work
HBV [2] = experiment: HBV inhibition assay in HepAD38 cells (extracellular HBV DNA by direct qPCR); format: cell-based, Hepatitis B virus; details: 96 hours; for Anti HBV Activity (conc μM): 0.1 μM, relative to non-treated reference

Compound	reduction in HBV DNA and serum HBV RNA (HBV [1])	Anti HBV Activity (conc μM) (HBV [2])	EC50 (HBV [2]; 8-point dose-response curve, read-out: HBV inh EC50)
O=C(Nc1cc(F)c(F)c(F)c1)c1ccc(F)c(S(=O)(=O)N2CCC(O)CC2)c1 [NVR3-778]	significant reduction in HBV DNA and serum HBV RNA	–	–
ethyl 7-methyl-8-((3,4,5-trifluorophenyl)carbamoyl)-3a,4,10,10a-tetrahydro-1H,7H-dipyrrolo[3,4-b:3′,4′-f][1,4,5]oxathiazocine-2(3H)-carboxylate 5,5-dioxide (3aS,10aS) [Example E32]	–	A (0.1) (HBV inhibition greater than 50% at the concentration indicated in the table)	< 1000 nM
tert-butyl 7-methyl-8-((3,4,5-trifluorophenyl)carbamoyl)-3a,4,10,10a-tetrahydro-1H,7H-dipyrrolo[3,4-b:3′,4′-f][1,4,5]oxathiazocine-2(3H)-carboxylate 5,5-dioxide (3aR,10aR) [Example E33]	–	B (0.1) (HBV inhibition less than 50% at the concentration indicated in the table)	–
